How the values were obtained:
[1] = target: T1, sRAGE (Homo sapiens, UniProt Q15109); assay: Tryptophan fluorescence quenching assay of sRAGE binding; details: sRAGE added at different time points of the reaction, 1:1 molar ratio
T1 construct: the soluble extracellular domain of RAGE (sRAGE); made in house; host or cells: Sf9 insect cells (baculovirus)
Description: The quenching of tryptophan fluorescence indicates binding. Fluorescence measurements were made at right angle in a […] dual path length quartz cuvette, using a Photon Technology International fluorescent spectrometer (280 nm excitation and 350 nm emission). Background fluorescence from buffer and IAPP peptides were negligible. The fluorescence quantum yield reported for each time point is an average of 20 reads over 20 seconds (2.5 nm bandwidth and 1 second integration time). Final solution conditions contained 16 mM tris HCl (pH 7.4).

[2] = ANS binding assay; assay type: physicochemical; details: 10 μM ANS, pH 7.4
Method: 8-Anilinonaphthalenesulfonic Acid (ANS) is a small hydrophobic dye which is been widely used in protein folding studies. It typically binds to partially structured states which are rich in secondary structure, compact, but which have not yet established the final tertiary structure, thus this dye can be used to detect a molten globule-like character of proteins. Fluorescence spectra of ANS-peptide complexes were measured using a Spex Fluorolog fluorimeter at 25 C (370 nm excitation and 460 nm emission). ANS-peptide complexes were monitored by adding aliquots of human IAPP to a 1 cm cuvette containing 10 μM ANS at various times along the amyloid formation reaction. Final solution conditions contained 16 mM tris HCl and 10 μM ANS (pH 7.4). […] All values represent means±SEM (n=3).

[3] = tested on: MCP-1 and IL-1β mRNA expression; assay: qRT-PCR of MCP-1 and IL-1β mRNA in smooth muscle cells; assay type: cell-based, mouse; details: peptide stimulation
Method: Mouse vascular SMCs were cultured from the aortas of 10-week-old male mice using a modification of the procedure of Tarvo and Barret. See Tarvo et al. Blood Vessels. 1980; 17:110-116. SMCs were cultured following an explant protocol in accordance with institutional guidelines. Cultures were composed of 95% SM-α-actin positivity based on immunostaining.
Assays for qRT-PCR were carried out in 6-well plates. Total cellular RNA was isolated from h-IAPP stimulated β-cells using Qiagen RNA isolation kit, and the quality of RNA samples was determined by measurement of 260:280 ratio. Only samples with a 260:280 ratio of 2.0 or higher were used for reverse transcription. RNA samples were also treated by RNAse-free DNAse to avoid genomic DNA contamination. One microgram of RNA from each sample was reverse-transcribed to cDNA using MCP-1 and IL-1β primers. Non-template negative controls were also performed to monitor non-specific reactions. RNA isolated from rat IAPP and non-h-IAPP treated beta cells were used as negative controls. Equal amounts of RNA were used in each qRT-PCR reaction, and 18S was used as the internal control for amplification at the same time. qRT-PCR reactions were carried out using an Applied Biosystems 7500 RealTime PCR machine. The relative mRNA contents were normalized using 18S and quantification was carried out using qRT-PCR Quantifier Software.

[4] = Thioflavin-T kinetics and TEM of amyloid formation by IAPP peptides; assay type: physicochemical; details: wild type IAPP under the conditions described
Method: Thioflavin-T fluorescence was used to monitor the time course of h-IAPP amyloid formation in the presence and absence of sRAGE. To identify which form(s) of h-IAPP interact with RAGE, sRAGE was added to h-IAPP at various time points during the h-IAPP amyloid formation reaction. Aliquots of the reaction mixture were analyzed by adding 100 uL aliquots of the amyloid formation reaction to 96-well plates containing 8 uL of 60 uM thioflavin-T solution at various incubation times after initiation of the amyloid formation reaction. Fluorescence was measured using a Beckman Coulter DTX880 fluorescent plate reader (excitation: 445 nm and emission: 485 nm). Final solution conditions contained 16 mM tris HCl and […] thioflavin-T (pH 7.4). […] All values represent means±SEM (n=3).
Transient kinetic species of h-IAPP were characterized by TEM. TEM images confirm the presence or absence of amyloid which were indicated by thioflavin-T fluorescence. Aliquots (4 μl) were removed from the reaction mixtures monitored by thioflavin-T assays, placed on a carbon-coated 200-mesh copper grid and negatively stained with saturated uranyl acetate. The samples were imaged with a Philips CM12 transmission electron microscope at the New York University electron microscopy core facility. Final solution conditions contained 16 mM tris HCl (pH 7.4).

T1 sequence (Q15109 23-342): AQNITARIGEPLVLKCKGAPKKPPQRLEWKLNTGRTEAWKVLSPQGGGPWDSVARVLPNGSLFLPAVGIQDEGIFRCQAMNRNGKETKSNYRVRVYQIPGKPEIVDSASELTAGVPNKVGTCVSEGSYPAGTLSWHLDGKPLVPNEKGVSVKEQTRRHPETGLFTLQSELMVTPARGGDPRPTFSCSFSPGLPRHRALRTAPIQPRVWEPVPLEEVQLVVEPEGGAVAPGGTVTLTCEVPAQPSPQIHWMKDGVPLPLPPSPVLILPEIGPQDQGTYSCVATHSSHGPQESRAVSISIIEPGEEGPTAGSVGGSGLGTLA

binding to sRAGE (tryptophan fluorescence quenching) [1]: wave of fluorescence quenching
ANS binding to final amyloid fibrils [2]: did bind
ANS binding to monomeric form and intermediates [2]: No ANS binding was observed
Compound: CC[C@H](C)[C@H](NC(=O)[C@H](C)NC(=O)CNC(=O)[C@H](Cc1ccccc1)NC(=O)[C@H](CC(N)=O)NC(=O)[C@H](CC(N)=O)NC(=O)[C@H](CO)NC(=O)[C@H](CO)NC(=O)[C@H](Cc1c[nH]cn1)NC(=O)[C@@H](NC(=O)[C@H](CC(C)C)NC(=O)[C@H](Cc1ccccc1)NC(=O)[C@H](CC(N)=O)NC(=O)[C@H](C)NC(=O)[C@H](CC(C)C)NC(=O)[C@H](CCCNC(=N)N)NC(=O)[C@H](CCC(N)=O)NC(=O)[C@@H](NC(=O)[C@H](C)NC(=O)[C@@H]1CSSC[C@H](NC(=O)[C@@H](N)CCCCN)C(=O)N[C@@H](CC(N)=O)C(=O)N[C@@H]([C@@H](C)O)C(=O)N[C@@H](C)C(=O)N[C@@H]([C@@H](C)O)C(=O)N1)[C@@H](C)O)C(C)C)C(=O)N[C@@H](CC(C)C)C(=O)N[C@@H](CO)C(=O)N[C@@H](CO)C(=O)N[C@H](C(=O)N[C@@H](CC(N)=O)C(=O)N[C@H](C(=O)NCC(=O)N[C@@H](CO)C(=O)N[C@@H](CC(N)=O)C(=O)N[C@H](C(=O)N[C@@H](Cc1ccc(O)cc1)C(N)=O)[C@@H](C)O)C(C)C)[C@@H](C)O [h-IAPP, human islet amyloid polypeptide]
MCP-1 and IL-1β mRNA expression in smooth muscle cells [3]: increase in MCP-1 and IL-1β mRNA expression
time at which the amyloid formation reaction reaches saturation [4]: about 40 hrs

— patent publication US20130022620A1, “ASSAYS AND METHODS PERTAINING TO PRE-AMYLOID INTERMEDIATES” (priority 2011, published 2013)
